Results taken from patent US10968203B2, “Pyrimidinyl-pyridyloxy-naphthyl compounds and methods of treating IRE1-related diseases and disorders” (Genentech, Inc., priority 2017, dated 2021).
Where a name gives a salt, the structure may show the parent alone. Read-outs that look alike come from different tables or passages of the source.

System: XBP1s-luc 293 LUC
Experiment: cellular PD assay, XBP1s-LUC reporter (Example 903)
Type: cell-based
Conditions: read-out: XBP1s-luc 293 LUC (IC50)
How it was run: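 Cellular IRE1α pathway activity was quantified from the luciferase signal of an XBP1-Luc reporter, where the luciferase fusion is in frame and expressed only from the spliced XBP1 transcript.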

| Compound | IC50 (Table 2) | IC50 (Table 1) |
| --- | --- | --- |
| CCC(F)(F)CS(=O)(=O)Nc1c(F)ccc2c(Oc3ncccc3-c3ccnc(N[C@@H]4CNC[C@@H](F)C4)n3)c(C)ccc12 (single isomer, unassigned) [Example 496, hydrochloride] | 17.9 nM |  |
| Cc1ccc2c(NS(=O)(=O)CCC(C)(F)F)c(F)ccc2c1Oc1ncccc1-c1ccnc(N[C@H]2CNC[C@H](F)C2)n1 (single isomer, unassigned) [Example 497, hydrochloride] | 5100 nM |  |
| Cc1ccc2c(NS(=O)(=O)CCC(C)(F)F)c(F)ccc2c1Oc1ncccc1-c1ccnc(N[C@@H]2CNC[C@@H](F)C2)n1 (single isomer, unassigned) [Example 498, hydrochloride] | 33 nM |  |
| Cc1ccc2c(NS(=O)(=O)N(C)CC(F)(F)F)c(F)ccc2c1Oc1ncccc1-c1ccnc(N[C@H]2CNC[C@H](F)C2)n1 (single isomer, unassigned) [Example 499, hydrochloride] | 680 nM |  |
| Cc1ccc2c(NS(=O)(=O)N(C)CC(F)(F)F)c(F)ccc2c1Oc1ncccc1-c1ccnc(N[C@@H]2CNC[C@@H](F)C2)n1 (single isomer, unassigned) [Example 500, hydrochloride] | 8.7 nM |  |
| Cc1ccc2c(NC(=O)c3cccc(C(C)(C)C#N)c3)cccc2c1Oc1ncccc1-c1ccnc(N[C@H]2CCCNC2)n1 [Example 101, (S)-3-(2-Cyanopropan-2-yl)-N-(6-methyl-5-((3-(2-(piperidin-3-ylamino)pyrimidin-4-yl)pyridin-2-yl)oxy)naphthalen-1-yl)benzamide] |  | 102 nM |
| Cc1ccc2c(NS(=O)(=O)Cc3ccccc3Cl)c(F)ccc2c1Oc1ncccc1-c1ccnc(N[C@H]2CCCNC2)n1 [Example 102, (S)-1-(2-Chlorophenyl)-N-(2-fluoro-6-methyl-5-((3-(2-(piperidin-3-ylamino)pyrimidin-4-yl)pyridin-2-yl)oxy)naphthalen-1-yl)methanesulfonamide] |  | 4.6 nM |
| CCS(=O)(=O)Nc1cccc2c(Oc3ncccc3-c3ccnc(N[C@H]4CCCNC4)n3)c(C)ccc12 [Example 103, (S)—N-(6-Methyl-5-((3-(2-(piperidin-3-ylamino)pyrimidin-4-yl)pyridin-2-yl)oxy)naphthalen-1-yl)ethanesulfonamide] |  | 255 nM |
| CCCS(=O)(=O)Nc1cccc2c(Oc3ncccc3-c3ccnc(N[C@H]4CCCNC4)n3)c(C)ccc12 [Example 104, (S)—N-(6-Methyl-5-(3-(2-(piperidin-3-ylamino)pyrimidin-4-yl)pyridin-2-yloxy)naphthalen-1-yl)propane-1-sulfonamide hydrochloride] |  | 131 nM |
| Cc1ccc2c(NS(=O)(=O)C3CC3)cccc2c1Oc1ncccc1-c1ccnc(N[C@H]2CCCNC2)n1 [Example 105, (S)—N-(6-Methyl-5-((3-(2-(piperidin-3-ylamino)pyrimidin-4-yl)pyridin-2-yl)oxy)naphthalen-1-yl)cyclopropanesulfonamide hydrochloride] |  | 493 nM |
| Cc1ccc2c(NS(=O)(=O)C(C)C)cccc2c1Oc1ncccc1-c1ccnc(N[C@H]2CCCNC2)n1 [Example 106, (S)—N-(6-Methyl-5-((3-(2-(piperidin-3-ylamino)pyrimidin-4-yl)pyridin-2-yl)oxy)naphthalen-1-yl) methylethylsulfonamide hydrochloride] |  | 349 nM |
| Cc1ccc2c(NS(=O)(=O)C3CCC3)cccc2c1Oc1ncccc1-c1ccnc(N[C@H]2CCCNC2)n1 [Example 107, (S)—N-(6-Methyl-5-((3-(2-(piperidin-3-ylamino)pyrimidin-4-yl)pyridin-2-yl)oxy)naphthalen-1-yl)cyclobutanesulfonamide hydrochloride] |  | 252 nM |
| Cc1ccc2c(NS(=O)(=O)N3CCCC3)cccc2c1Oc1ncccc1-c1ccnc(N[C@H]2CCCNC2)n1 [Example 108, (S)—N-(6-Methyl-5-((3-(2-(piperidin-3-ylamino)pyrimidin-4-yl)pyridin-2-yl)oxy)naphthalen-1-yl)pyrrolidine-1-sulfonamide hydrochloride] |  | 298 nM |
